Consider six compounds from article PMC2964301, “Human α3β4 Neuronal Nicotinic Receptors Show Different Stoichiometry if They Are Expressed in Xenopus Oocytes or Mammalian HEK293 Cells” (PLoS ONE, 2010).

Assay type in all cases: cell-based
In assay [1] the target is T1, human α3β4 nicotinic receptor in Xenopus oocytes, 9:1 α:β cRNA (putative three-α form) (Homo sapiens, UniProt P30926+P32297).
T1 construct: gene CHRNA3; untagged; Xenopus laevis oocytes, 9:1 α:β cRNA; heteropentamer, putative (α3)3(β4)2
T1 sequence (P30926 22-498): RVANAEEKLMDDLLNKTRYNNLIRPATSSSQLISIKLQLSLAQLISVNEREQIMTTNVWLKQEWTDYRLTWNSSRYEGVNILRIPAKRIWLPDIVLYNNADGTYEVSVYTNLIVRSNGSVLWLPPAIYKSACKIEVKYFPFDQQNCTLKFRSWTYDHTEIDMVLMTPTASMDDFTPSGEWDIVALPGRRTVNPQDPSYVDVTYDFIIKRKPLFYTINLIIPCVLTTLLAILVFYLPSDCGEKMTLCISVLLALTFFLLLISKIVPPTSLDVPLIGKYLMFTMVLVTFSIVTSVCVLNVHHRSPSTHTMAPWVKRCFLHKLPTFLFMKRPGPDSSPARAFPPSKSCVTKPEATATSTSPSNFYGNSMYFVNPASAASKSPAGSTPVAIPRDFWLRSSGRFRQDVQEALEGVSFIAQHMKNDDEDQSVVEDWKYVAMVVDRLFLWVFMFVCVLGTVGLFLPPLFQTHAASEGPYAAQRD
T1 sequence (P32297 32-505): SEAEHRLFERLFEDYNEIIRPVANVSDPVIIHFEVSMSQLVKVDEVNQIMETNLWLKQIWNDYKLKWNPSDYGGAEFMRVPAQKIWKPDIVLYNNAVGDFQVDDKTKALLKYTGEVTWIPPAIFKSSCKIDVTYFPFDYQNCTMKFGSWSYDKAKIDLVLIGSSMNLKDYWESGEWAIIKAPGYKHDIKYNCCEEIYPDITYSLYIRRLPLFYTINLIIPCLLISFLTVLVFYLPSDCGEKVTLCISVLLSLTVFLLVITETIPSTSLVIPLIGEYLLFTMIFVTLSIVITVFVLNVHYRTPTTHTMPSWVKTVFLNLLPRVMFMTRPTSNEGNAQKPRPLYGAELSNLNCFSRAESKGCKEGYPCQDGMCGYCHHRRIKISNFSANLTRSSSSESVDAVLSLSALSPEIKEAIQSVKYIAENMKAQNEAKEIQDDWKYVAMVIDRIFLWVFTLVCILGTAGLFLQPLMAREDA
The assay is described as follows: two-electrode voltage clamp, extrapolated from low-concentration potency ratio. Conditions: agonist, unreliable (extrapolated assuming identical efficacy to ACh).

In assay [2] the target is T2, human α3β4 nicotinic receptor in Xenopus oocytes, 1:9 α:β cRNA (putative two-α form) (Homo sapiens, UniProt P30926+P32297).
T2 construct: gene CHRNA3; untagged; Xenopus laevis oocytes, 1:9 α:β cRNA; heteropentamer, putative (α3)2(β4)3
The assay is described as above. Conditions: agonist, unreliable (extrapolated assuming identical efficacy to ACh).
Target sequence in this assay (P30926 22-498): as the sequence (P30926 22-498) above
Target sequence in this assay (P32297 32-505): as the sequence (P32297 32-505) above

Assay [3] deals with T2, human α3β4 nicotinic receptor in Xenopus oocytes, 1:9 α:β cRNA (putative two-α form). As to the kind of experiment: two-electrode voltage clamp, partial dose-response curves. The note with it: agonist, -70 mV, pH 7.2, nominally Ca-free, 0.5 µM atropine, 18°C, low concentrations. An excerpt: two-electrode voltage clamp, partial dose-response curves on human α3β4 nicotinic receptor in Xenopus oocytes, 1:9 α:β cRNA (putative two-α form)
(Two-electrode voltage clamp is typically applied to oocytes expressing channels or transporters.)

On to `C[N+]1(C)CCN(c2ccccc2)CC1` [DMPP, 1,1-dimethyl-4-phenylpiperazinium iodide], for which the “EC 50” value in assay [1] is listed as ~ 30 µM; in assay [2], ~ 140 µM.
With `C[N+](C)(C)CCOC(N)=O` [carbachol], the Potency ratio in assay [3] amounted to 0.094±0.003.
On the same count and under the same terms, next, `O=c1cccc2n1C[C@@H]1CNC[C@H]2C1` [cytisine]: 1.40±0.15; `Clc1ccc(C2CC3CCC2N3)cn1` (stereo not shown) [epibatidine]: 6290±815; `CN1[C@@H](CC(=O)c2ccccc2)CCC[C@H]1C[C@H](O)c1ccccc1` [lobeline]: 7.35±0.56.
Still for that read-out and setting: to `CN1CCC[C@H]1c1cccnc1` [nicotine] belongs 1.43±0.14.
